For assay [1], the target named is Lysine-specific demethylase 5B (Homo sapiens, UniProt Q9UGL1). Briefly: Inhibition of human recombinant KDM5B assessed as decarboxylation of [1-14C] alphaKG by measuring 14CO2 release using H3K4me3 as substrate incubated for 1 hr.
For assay [2], the target named is T1, Lysine-specific demethylase 4A (Homo sapiens, UniProt O75164).
T1 sequence (O75164 whole entry): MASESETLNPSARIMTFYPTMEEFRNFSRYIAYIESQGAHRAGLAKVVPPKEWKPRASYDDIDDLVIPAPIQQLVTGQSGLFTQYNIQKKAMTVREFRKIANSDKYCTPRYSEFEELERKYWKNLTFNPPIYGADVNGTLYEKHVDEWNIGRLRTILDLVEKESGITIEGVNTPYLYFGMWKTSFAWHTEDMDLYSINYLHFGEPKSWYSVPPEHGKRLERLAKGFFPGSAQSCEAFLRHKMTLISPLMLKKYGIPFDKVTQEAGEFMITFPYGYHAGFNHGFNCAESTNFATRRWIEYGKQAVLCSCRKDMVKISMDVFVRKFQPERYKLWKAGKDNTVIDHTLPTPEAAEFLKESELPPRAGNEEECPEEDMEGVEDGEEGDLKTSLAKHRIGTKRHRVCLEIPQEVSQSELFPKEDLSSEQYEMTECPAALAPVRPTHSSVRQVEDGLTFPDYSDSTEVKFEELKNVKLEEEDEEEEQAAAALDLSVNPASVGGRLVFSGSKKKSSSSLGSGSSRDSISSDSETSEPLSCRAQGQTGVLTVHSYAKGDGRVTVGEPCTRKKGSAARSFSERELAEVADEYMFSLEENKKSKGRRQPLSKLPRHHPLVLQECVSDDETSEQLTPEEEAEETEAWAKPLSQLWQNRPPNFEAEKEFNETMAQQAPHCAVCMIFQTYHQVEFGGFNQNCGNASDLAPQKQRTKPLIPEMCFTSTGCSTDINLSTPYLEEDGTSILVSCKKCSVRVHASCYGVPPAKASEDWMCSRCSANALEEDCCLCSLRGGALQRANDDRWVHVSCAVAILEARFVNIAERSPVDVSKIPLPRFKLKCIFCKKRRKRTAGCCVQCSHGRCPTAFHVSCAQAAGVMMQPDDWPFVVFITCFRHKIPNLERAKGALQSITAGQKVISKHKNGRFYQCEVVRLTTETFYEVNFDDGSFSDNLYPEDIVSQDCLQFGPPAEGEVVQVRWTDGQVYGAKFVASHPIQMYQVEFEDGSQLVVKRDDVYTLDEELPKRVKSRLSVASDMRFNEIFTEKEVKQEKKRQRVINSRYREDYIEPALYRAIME
The experiment in a line: Inhibition of human recombinant KDM4A assessed as decarboxylation of [1-14C] alphaKG at pH 7.4 using H3K9me3 as substrates incubated for 1 hr.

pIC50: −log10 of the molar value.

Lysine-specific demethylase 5B, sequence (Q9UGL1 whole entry): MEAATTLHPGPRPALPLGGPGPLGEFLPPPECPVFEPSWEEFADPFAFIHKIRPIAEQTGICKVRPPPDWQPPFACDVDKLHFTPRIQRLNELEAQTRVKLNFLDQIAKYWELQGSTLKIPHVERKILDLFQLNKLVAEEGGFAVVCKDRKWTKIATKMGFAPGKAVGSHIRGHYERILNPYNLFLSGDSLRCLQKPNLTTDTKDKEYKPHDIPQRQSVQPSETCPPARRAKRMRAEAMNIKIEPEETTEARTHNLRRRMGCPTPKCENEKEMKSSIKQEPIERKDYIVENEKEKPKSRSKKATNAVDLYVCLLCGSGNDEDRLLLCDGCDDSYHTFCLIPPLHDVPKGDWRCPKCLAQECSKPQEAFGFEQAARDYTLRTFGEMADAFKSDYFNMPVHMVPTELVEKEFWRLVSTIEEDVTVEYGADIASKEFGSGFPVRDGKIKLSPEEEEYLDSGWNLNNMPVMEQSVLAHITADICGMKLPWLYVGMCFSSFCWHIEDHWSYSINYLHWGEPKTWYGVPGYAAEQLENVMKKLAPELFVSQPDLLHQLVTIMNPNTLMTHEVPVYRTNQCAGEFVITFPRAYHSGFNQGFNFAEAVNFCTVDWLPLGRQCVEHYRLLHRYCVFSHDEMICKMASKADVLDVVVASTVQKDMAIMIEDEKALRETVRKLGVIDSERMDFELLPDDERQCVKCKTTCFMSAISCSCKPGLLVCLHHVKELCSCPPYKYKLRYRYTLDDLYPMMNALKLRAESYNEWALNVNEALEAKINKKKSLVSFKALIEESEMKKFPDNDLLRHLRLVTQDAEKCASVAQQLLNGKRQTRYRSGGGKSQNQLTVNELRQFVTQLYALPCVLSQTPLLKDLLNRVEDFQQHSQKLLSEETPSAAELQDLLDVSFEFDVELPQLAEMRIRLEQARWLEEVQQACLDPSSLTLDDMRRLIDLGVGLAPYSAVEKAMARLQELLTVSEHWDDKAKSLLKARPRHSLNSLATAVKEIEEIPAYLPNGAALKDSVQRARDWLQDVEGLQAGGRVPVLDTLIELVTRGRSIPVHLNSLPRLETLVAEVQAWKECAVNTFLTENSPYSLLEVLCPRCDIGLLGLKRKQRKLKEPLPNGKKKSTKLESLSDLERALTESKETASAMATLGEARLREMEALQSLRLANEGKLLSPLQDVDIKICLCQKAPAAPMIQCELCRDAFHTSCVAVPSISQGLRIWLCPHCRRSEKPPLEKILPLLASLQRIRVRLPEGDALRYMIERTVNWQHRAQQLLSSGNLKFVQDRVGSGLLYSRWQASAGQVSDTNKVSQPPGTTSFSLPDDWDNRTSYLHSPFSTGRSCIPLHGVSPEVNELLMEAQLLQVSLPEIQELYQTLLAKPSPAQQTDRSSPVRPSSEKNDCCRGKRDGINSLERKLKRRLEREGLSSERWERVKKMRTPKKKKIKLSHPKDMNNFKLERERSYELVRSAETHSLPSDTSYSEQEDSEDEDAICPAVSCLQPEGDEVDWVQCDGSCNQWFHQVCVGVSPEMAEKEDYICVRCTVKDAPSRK

Broadly, the pIC50 is −log10 of the IC50, conventionally taken in molar units. For `N#Cc1c(O)c(C(=O)CCC(=O)O)nc2cc(Cc3ccccc3)ccc12`, the results for the pIC50 in assay [1] and in assay [2] were 6.62 and under 4.40, respectively.

In the case of `N#Cc1c(O)c(C(=O)CCC(=O)O)nc2ccc(Cc3ccccc3)cc12`, the pIC50 was 6.01 in assay [1] and under 4.40 in assay [2].

On to `N#Cc1c(O)c(C(=O)CCC(=O)O)nc2cc(Sc3ccccc3)ccc12`, for which the negative-log IC50 (pIC50) was 6.82 in assay [1] and under 4.40 in assay [2].

As to `COc1ccc(-c2ccc3c(C#N)c(O)c(C(=O)CCC(=O)O)nc3c2)cc1`, the pIC50 in assay [1] was 6.66; in assay [2], under 4.40.

`Cc1cc(C)cc(-c2ccc3c(C#N)c(O)c(C(=O)CCC(=O)O)nc3c2)c1`: the figures for the pIC50 in assay [1] and in assay [2] were 6.43 and under 4.40, respectively.

`N#Cc1c(O)c(C(=O)CCC(=O)O)nc2ccccc12`: the negative logarithm of the IC50 (pIC50) in assay [1] is 6.89; in assay [2], 4.40.

As to `N#Cc1c(O)c(C(=O)CCC(=O)O)nc2cc(-c3ccccc3)ccc12`, the negative logarithm of the IC50 (pIC50) is 7.05 in assay [1] and 5.41 in assay [2].

As to `N#Cc1ccc(-c2cccc3c(C#N)c(O)c(C(=O)CCC(=O)O)nc23)cc1`, the negative logarithm of the IC50 (pIC50) was 6.89 in assay [1] and 5.10 in assay [2].

`O=C(O)CCC(=O)c1nc2cc(-c3ccccc3)ccc2cc1O`: the negative-log IC50 (pIC50) in assay [1] and in assay [2] was under 4.40 throughout.

In the case of `Cc1cccc(-c2ccc3c(C#N)c(O)c(C(=O)CCC(=O)O)nc3c2)c1`, the negative-log IC50 (pIC50) in assay [1] was 6.64; in assay [2], 4.66.

On to `N#Cc1c(O)c(C(=O)CCC(=O)O)nc2ccc(-c3ccccc3)cc12`, for which the pIC50 was 6.51 in assay [1] and under 4.40 in assay [2].

Values taken from ChEMBL document CHEMBL5390304, “Phenyl-quinoline-xxo-butyric Acid Inhibitors of Histone Lysine Demethylase for the Treatment of Cancer” (ACS Med Chem Lett, 2023).
